Experimental data as given in US8791132B2, “Compounds and methods for treatment of hypertension” (Medivation Technologies, Inc., priority 2011, dated 2014).
Like-named read-outs stand apart in the source and are kept apart here. Each block holds one compound with its values, some of them ahead of it.

Tests used:
[1] = molecular target: T1, human recombinant adrenergic α2A receptor (Homo sapiens, UniProt P08913); assay: Radioligand binding, adrenergic α2A ([3H]MK-912); details: for Percentage inhibition of ligand binding, Adrenergic α2A (0.1 μM) / Percentage inhibition of ligand binding, Adrenergic α2A: 0.1 µM
T1 construct: expressed in transfected cells; host or cells: insect Sf9 cells
T1 sequence (P08913 1-465): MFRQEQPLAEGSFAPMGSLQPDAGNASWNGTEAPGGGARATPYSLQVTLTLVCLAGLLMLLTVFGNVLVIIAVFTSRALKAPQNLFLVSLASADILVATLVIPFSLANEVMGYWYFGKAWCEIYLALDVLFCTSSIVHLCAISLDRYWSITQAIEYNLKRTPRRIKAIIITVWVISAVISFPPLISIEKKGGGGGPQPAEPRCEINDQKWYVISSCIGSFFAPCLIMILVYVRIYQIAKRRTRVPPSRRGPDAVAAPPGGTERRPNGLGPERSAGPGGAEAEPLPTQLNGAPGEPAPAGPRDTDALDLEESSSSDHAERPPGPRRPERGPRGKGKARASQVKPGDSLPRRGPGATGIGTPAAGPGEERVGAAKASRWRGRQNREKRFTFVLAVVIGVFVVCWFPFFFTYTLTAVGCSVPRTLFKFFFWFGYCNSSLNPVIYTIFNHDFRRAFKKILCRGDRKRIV
How it was run: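 Receptor expressed in insect Sf9 cells, assayed in 50 mM Tris-HCl pH 7.4 with 12.5 mM MgCl2 and 2 mM EDTA. Compounds incubated with 1 nM [3H]MK-912 for 60 min at 25 °C; nonspecific binding defined with 10 μM WB-4101. Filter-bound radioactivity counted; values are percent inhibition of specific binding.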

[2] = molecular target: T2, human recombinant adrenergic α2B receptor (Homo sapiens, UniProt P18089); assay: Radioligand binding, adrenergic α2B ([3H]Rauwolscine); details: for Percentage inhibition of ligand binding, Adrenergic α2B (0.03 μM) / Percentage inhibition of ligand binding, Adrenergic α2B: 0.03 µM
T2 construct: expressed in transfected cells; host or cells: CHO-K1
T2 sequence (P18089 1-450): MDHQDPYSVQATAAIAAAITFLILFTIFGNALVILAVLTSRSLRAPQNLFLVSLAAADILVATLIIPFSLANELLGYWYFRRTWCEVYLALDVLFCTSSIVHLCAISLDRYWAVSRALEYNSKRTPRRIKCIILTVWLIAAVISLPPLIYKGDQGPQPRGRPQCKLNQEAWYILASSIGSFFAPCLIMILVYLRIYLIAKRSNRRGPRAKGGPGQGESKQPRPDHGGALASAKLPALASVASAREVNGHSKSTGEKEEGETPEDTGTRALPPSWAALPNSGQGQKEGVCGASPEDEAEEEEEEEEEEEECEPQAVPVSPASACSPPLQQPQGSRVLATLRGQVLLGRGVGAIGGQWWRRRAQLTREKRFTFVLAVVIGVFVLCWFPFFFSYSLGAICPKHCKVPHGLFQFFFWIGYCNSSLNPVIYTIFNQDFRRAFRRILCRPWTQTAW
How it was run: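 Assay used CHO-K1-expressed human α2B receptor in Tris-HCl pH 7.4 buffer with MgCl2, EDTA and BSA; 60 min incubation at 25 °C.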

[3] = molecular target: T3, rat adrenergic α1B receptor (Rattus norvegicus, UniProt P15823); assay: Radioligand binding, adrenergic α1B ([3H]Prazosin); details: for Percentage inhibition of ligand binding, Adrenergic α1B (0.1 μM) / Percentage inhibition of ligand binding, Adrenergic α1B: 0.1 µM
T3 construct: rat adrenergic α1B receptor obtained from Wistar Rat liver; from tissue; host or cells: Wistar rat liver
T3 sequence (P15823 1-515): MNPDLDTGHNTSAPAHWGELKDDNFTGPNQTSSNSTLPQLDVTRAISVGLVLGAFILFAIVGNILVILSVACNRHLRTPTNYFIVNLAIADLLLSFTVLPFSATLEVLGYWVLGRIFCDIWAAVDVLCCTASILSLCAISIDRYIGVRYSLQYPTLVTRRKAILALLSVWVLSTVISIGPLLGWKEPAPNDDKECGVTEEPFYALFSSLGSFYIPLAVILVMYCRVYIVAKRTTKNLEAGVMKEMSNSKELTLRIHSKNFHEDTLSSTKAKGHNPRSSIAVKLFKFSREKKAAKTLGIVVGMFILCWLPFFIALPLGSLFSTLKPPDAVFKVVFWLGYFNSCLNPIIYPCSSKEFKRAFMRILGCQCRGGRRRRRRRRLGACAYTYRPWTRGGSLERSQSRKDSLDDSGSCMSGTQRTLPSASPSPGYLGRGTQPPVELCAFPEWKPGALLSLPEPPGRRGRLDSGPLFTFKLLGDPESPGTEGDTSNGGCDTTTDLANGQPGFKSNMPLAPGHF
Experimental: To evaluate in radioligand binding assays the activity of compounds of the invention, rat adrenergic α1B receptor obtained from Wistar Rat liver (Garcia-S'ainz, J. et al, Biochem. Biophys. Res. Commun. 186:760, 1992; Michel, A. et al, Br. J. Pharmacol. 98:883, 1989) in a modified Tris-HCl buffer (50 mM Tris-HCl buffer, pH 7.4, 0.5 mM EDTA) was used. Compounds of the invention were incubated with 0.25 nM [^3H]Prazosin for 60 min at 25° C. Non-specific binding was estimated in the presence of 10 μM phentolamine. Receptor proteins were filtered and washed, the filters were then counted to determine [^3H]Prazosin specifically bound. […] Compounds of the invention were tested in this biochemical assay and percent inhibition of specific binding was determined. Biochemical assay results are presented as the percent inhibition of specific binding in Table B1.

[4] = compound at 0.1 μM, [3H]MK-912, repeat datapoints each shown
[5] = compound at 0.03 μM, [3H]Rauwolscine, repeat datapoints each shown
[6] = compound at 0.1 μM, [3H]Prazosin, repeat datapoints each shown
[7] = read-out: Percentage inhibition of ligand binding, Adrenergic α2A (0.1 μM), compound at 0.1 μM, [3H]MK-912, repeat datapoints each shown
[8] = read-out: Percentage inhibition of ligand binding, Adrenergic α2B (0.03 μM), compound at 0.03 μM, [3H]Rauwolscine, repeat datapoints each shown
[9] = read-out: Percentage inhibition of ligand binding, Adrenergic α1B (0.1 μM), compound at 0.1 μM, [3H]Prazosin, repeat datapoints each shown
[10] = 0.1 μM compound, read-out: Percentage inhibition of ligand binding, Adrenergic α2A
[11] = 0.03 μM compound, read-out: Percentage inhibition of ligand binding, Adrenergic α2B
[12] = 0.1 μM compound, read-out: Percentage inhibition of ligand binding, Adrenergic α1B
[13] = compound at 0.03 μM, [3H]Rauwolscine, repeat assays, each datapoint shown, read-out: Percentage inhibition of ligand binding, Adrenergic α2B
[14] = compound at 0.1 μM, [3H]Prazosin, repeat assays, each datapoint shown
[15] = compound at 0.1 μM, [3H]MK-912, repeat assays, each datapoint shown, read-out: Percentage inhibition of ligand binding, Adrenergic α2A

Percentage inhibition of ligand binding, Adrenergic α2A (0.1 μM) [1, 4]: 43%
Percentage inhibition of ligand binding, Adrenergic α2B (0.03 μM) [2, 5]: 93%
Percentage inhibition of ligand binding, Adrenergic α1B (0.1 μM) [3, 6]: 34%
SMILES: Cc1ccc2c(c1)c1c(n2CC(N=[N+]=[N-])c2ccc(F)cc2F)CCN(C)CC1 (single isomer, unassigned) [V-21b, 6-(2-azido-2-(2,4-difluorophenyl)ethyl)-3,9-dimethyl-1,2,3,4,5,6-hexahydroazepino[4,5-b]indole]

inhibition at 0.1 µM [1, 7]: 70%
inhibition at 0.03 µM [2, 8]: 103%
inhibition at 0.1 µM [3, 9]: 71%
SMILES: Cc1ccc2c(c1)c1c(n2CC(N=[N+]=[N-])c2cnccn2)CCN2CCCC12 (stereo not drawn) [II-261, 6-(2-azido-2-pyrazin-2-yl-ethyl)-9-methyl-2,3,4,5,6,10c-hexahydro-1H-3a,6-diaza-cyclopenta[c]fluorene]

Percentage inhibition of ligand binding, Adrenergic α2A (0.1 μM) [1, 4]: 5%
Percentage inhibition of ligand binding, Adrenergic α2B (0.03 μM) [2, 5]: 41%
Percentage inhibition of ligand binding, Adrenergic α1B (0.1 μM) [3, 6]: 49%
SMILES: Cc1cnc2c(c1)c1c(n2CC(C)(O)c2ccc(F)cc2)CCN2CCCC12 (single isomer, unassigned) [II-149c, 2-(4-fluoro-phenyl)-1-(9-methyl-1,2,3,4,5,10c-hexahydro-3a,6,7-triazacyclopenta[c]fluoren-6-yl)-propan-2-ol]

inhibition at 0.1 µM [1, 7]: 11%
inhibition at 0.03 µM [2, 8]: 73%
inhibition at 0.1 µM [3, 9]: 2%
SMILES: Cc1cc2c3c(n(CC(C)(O)c4cccnc4)c2cc1CO)CCN(C)C3 (stereo not drawn) [II-154]

Percentage inhibition of ligand binding, Adrenergic α2A ([1]; 0.1 μM compound): −5%
Percentage inhibition of ligand binding, Adrenergic α2B ([2]; 0.03 μM compound): 24%
Percentage inhibition of ligand binding, Adrenergic α1B ([3]; 0.1 μM compound): 7%
SMILES: OCCN1CCc2c(c3cc(Cl)ccc3n2CC(O)c2cccnc2)C1 (single isomer, unassigned) [II-94b]

inhibition at 0.1 µM [1, 7]: 27%
inhibition at 0.03 µM [2, 8]: 93%
inhibition at 0.1 µM [3, 9]: 21%
SMILES: Cc1ccc2c(c1)c1c(n2CC(C)(O)c2cnccc2Cl)CCN(C)C1 (stereo not drawn) [II-148]

inhibition at 0.1 µM [1, 10]: 8%
inhibition at 0.03 µM [2, 11]: 21%
inhibition at 0.1 µM [3, 12]: 8%
SMILES: Cc1ccc2c(c1)c1c(n2CC(C)(OC(=O)c2ccncc2)c2cccnc2)CCN(C)C1 (stereo not drawn) [II-19]

The next lines start with the compound.

SMILES: Cc1ccc(C(C)(O)Cn2c3c(c4cc(Cl)ccc42)CN(C)CC3)cn1 (single isomer, unassigned) [93b]
Percentage inhibition of ligand binding, Adrenergic α2A (0.1 μM) [1, 4]: −5%
Percentage inhibition of ligand binding, Adrenergic α2B (0.03 μM) [2, 5]: 26%
Percentage inhibition of ligand binding, Adrenergic α1B (0.1 μM) [3, 6]: 1%

SMILES: Cc1ccc2c(n1)c1c(n2CC(C)(O)c2cccnc2)CCN2CCCC12 (stereo not drawn) [II-17]
inhibition at 0.1 µM [1, 10]: 4%
inhibition at 0.03 µM [2, 11]: 7%
inhibition at 0.1 µM [3, 12]: 8%

SMILES: Cc1ccc2c(c1)c1c(n2CC(OC(=O)C(C)C)c2ccncc2)CCN(C)C1 (single isomer, unassigned) [54a, 2-(1,2,3,4-tetrahydro-2,8-dimethylpyrido[4,3-b]indol-5-yl)-1-(pyridin-4-yl)ethyl isobutyrate]
Percentage inhibition of ligand binding, Adrenergic α2A ([1]; compound at 0.1 μM, [3H]MK-912, repeat assays, each datapoint shown): 30%
inhibition at 0.03 µM [2, 13]: 105%
Percentage inhibition of ligand binding, Adrenergic α1B [3, 14]: 39%

SMILES: Cc1ccc(C(O)Cn2c3c(c4cc(C)ccc42)CN(C)CC3)cc1 (stereo not drawn) [183a, 2-(1,2,3,4-tetrahydro-2,8-dimethylpyrido[4,3-b]indol-5-yl)-1-p-tolylethanol]
inhibition at 0.1 µM [1, 7]: 56%
inhibition at 0.03 µM [2, 8]: 82%
inhibition at 0.1 µM [3, 9]: 77%

SMILES: CC(O)(Cn1c2c(c3cc(Cl)cnc31)CNCC2)c1ccncc1 (single isomer, unassigned) [12a, 1-(3-chloro-5,6,7,8-tetrahydro-1,6,9-triaza-fluoren-9-yl)-2-pyridin-4-yl-propan-2-ol]
inhibition at 0.1 µM [1, 15]: 3%
inhibition at 0.03 µM [2, 13]: 24%
Percentage inhibition of ligand binding, Adrenergic α1B [3, 14]: 23%

SMILES: CN1CCc2c(c3cccc(Cl)c3n2CC(C)(O)c2cccnc2)C1 (single isomer, unassigned) [57a, 1-(6-chloro-2-methyl-1,2,3,4-tetrahydro-pyrido[4,3-b]indol-5-yl)-2-pyridin-3-yl-propan-2-ol]
inhibition at 0.1 µM [1, 15]: 22%
Percentage inhibition of ligand binding, Adrenergic α2B ([2]; compound at 0.03 μM, [3H]Rauwolscine, repeat assays, each datapoint shown): 16%
Percentage inhibition of ligand binding, Adrenergic α1B [3, 14]: 3%
